# System: Cochliobolus miyabeanus
# Assay: Activity against brown spot of rice caused by Cochliobolus miyabeanus, protective application
# Assay type: in vivo
# Conditions: individual active compound, 16 ppm in the spray liquor, rice leaves, 6 days after inoculation
# Procedure: The active compounds, separately or jointly, were prepared as a stock solution comprising 0.25% by weight of active compound in acetone or DMSO. 1% by weight of the emulsifier Uniperol® EL (wetting agent having emulsifying and dispersing action based on ethoxylated alkylphenols) was added to this solution, and the mixture was appropriately diluted with water to the desired concentration.
# Use example—Activity against brown spot of rice caused by Cochliobolus miyabeanus, protective application
# Leaves of rice seedlings of the cultivar “Tai-Nong 67” which had been grown in pots were sprayed to runoff point with an aqueous suspension having the concentration of active compound stated below. The next day, the plants were inoculated with an aqueous spore suspension of Cochliobolus miyabeanus. The test plants were then placed in climatized chambers at 22-24° C. and 95-99% relative atmospheric humidity for 6 days. The extent of the development of infection on the leaves was then determined visually.
# Evaluation is carried out by determining the infected leaf areas in percent. These percentages were converted into efficacies.
# The efficacy (E) is calculated as follows using Abbot's formula: […]
# The expected efficacies of the mixtures of active compounds are determined using Colby's formula [R. S. Colby, Weeds, 15, 20-22 (1967)] and are compared with the observed efficacies. […]
smiles,measurement,value
"CC1CCN(c2c(-c3c(F)cc(F)cc3F)c(Cl)nc3ncnn23)CC1 [compound I, 5-chloro-7-(4-methylpiperidin-1-yl)-6-(2,4,6-trifluorophenyl)[1,2,4]tri-azolo[1,5-a]pyrimidine]",Efficacy in % of the untreated control,54%
